From patent US11999746B2, “Compounds” (GlaxoSmithKline Intellectual Property Development Limited, priority 2014, dated 2024)

biological target: T1, Lp-PLA2 in human plasma (Homo sapiens, UniProt Q13093); test: (3a) Lp-PLA2 human plasma Thio-PAF assay; format: biochemical; details: (3a) Thio-PAF assay, pooled human plasma; Examples 1-265 and 413-430 were tested here; read-out: pIC50 in the Lp-PLA2 human plasma assay (converted)
T1 construct: from tissue; host or cells: pooled human plasma
T1 sequence (Q13093 22-441): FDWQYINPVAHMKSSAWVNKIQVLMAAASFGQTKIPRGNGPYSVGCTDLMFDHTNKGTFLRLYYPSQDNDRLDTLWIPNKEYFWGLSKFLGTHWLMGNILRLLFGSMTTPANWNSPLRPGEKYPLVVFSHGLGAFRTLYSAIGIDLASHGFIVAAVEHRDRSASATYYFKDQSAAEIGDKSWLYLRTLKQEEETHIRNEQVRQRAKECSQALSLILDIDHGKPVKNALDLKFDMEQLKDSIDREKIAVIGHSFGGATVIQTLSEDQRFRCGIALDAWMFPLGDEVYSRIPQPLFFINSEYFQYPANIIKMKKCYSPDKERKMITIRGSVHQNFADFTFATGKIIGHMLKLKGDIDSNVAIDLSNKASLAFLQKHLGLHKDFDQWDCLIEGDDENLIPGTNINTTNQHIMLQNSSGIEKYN
Description: (3) Lipoprotein-Associated Phospholipase A2 (Lp-PLA2) Human Plasma Assay
The human plasma assay utilizes a thioester analog of PAF (phosphatidylcholine), where hydrolysis yields to the formation of a phospholipid containing a free thiol group. The amount of thiol is quantitated continuously by reacting with CPM (7-diethylamino-3-(4′-maleimidylphenyl)-4-methylcoumarin), a maleimide which increases in fluoresence after Michael addition of thiols. This assay may detect the activity of Lp-PLA2 in human plasma, as determined by specific inhibition by Lp-PLA2 inhibitors.
The thio-PAF assay was run as a quenched 15 μL assay. Compounds source plate was prepared by making 1:3 (by volume) serial dilution of the compounds into pure DMSO on 384-well microplate. 0.01 μL of compounds on compound source plate were transferred to 384 well Greiner 784076 (black) low-volume plates by ECHO liquid dispenser. 8 μL pooled human plasma, which was previously aliquoted and frozen, was added. Plates were centrifuged for 10 sec at 500 rpm. After 30 minutes preincubation, 2 μL of substrate solution comprising 2.5 mM 2-thio-PAF [from ethanol stock], 32 μM CPM [from a DMSO stock] and 3.2 mM NEM (N-ethylmaleimide) [made fresh daily in DMSO] in assay buffer of 50 mM HEPES, pH 7.4, 150 mM NaCl, 1 mM CHAPS was added to 384 well Greiner 784076 (black) low-volume plates by BRAVO liquid handling station. After 2 mins, reaction was quenched with 5 μL of 5% aqueous trifluoroacetic acid (TFA). Plates were covered to protect from light and incubated for 40 min at room temperature. Plates were read at ex: 380/em: 485 using Envision microplate reader. PIC50 data, curve and QC analysis were conducted by using XLFit module in Excel.

Compound | IC50
O=c1nc(OCc2cc(F)cc(F)c2)cc2n1C[C@@H]1CCCN21 [Example E215, (S)-3-((3,5-difluorobenzyl)oxy)-7,8,8a,9-tetrahydropyrrolo[1′,2′:3,4]imidazo[1,2-c]pyrimidin-1(6H)-one] | ≤ 10 µM
O=c1nc(NCc2ccc(F)cc2F)cc2n1C[C@H]1CCCN21 [Example E216, (R)-3-((2,4-difluorobenzyl)amino)-7,8,8a,9-tetrahydropyrrolo[1,2′:3,4]imidazo[1,2-c] pyrimidin-1(6H)-one] | ≤ 10 µM
O=c1nc(OCc2cc(F)c(F)cc2F)cc2n1C[C@H]1CCCN21 [Example E218, (R)-3-((2,4,5-trifluorobenzyl)oxy)-7,8,8a,9-tetrahydropyrrolo[1′,2′:3,4]imidazo[1,2-c]pyrimidin-1(6H)-one] | ≤ 10 µM
O=c1nc(OCc2cc(F)c(F)cc2F)cc2n1C[C@@H]1COCCN21 [Example E219, (R)-7-((2,4,5-trifluorobenzyl)oxy)-3,4,11,11a-tetrahydropyrimido[6′,1′:2,3]imidazo[5,1-c] [1,4]oxazin-9(1H)-one] | ≤ 10 µM
O=c1nc(OCc2cc(F)c(F)cc2F)cc2n1C[C@H]1COCCN21 [Example E220, (S)-7-((2,4,5-trifluorobenzyl)oxy)-3,4,11,11a-tetrahydropyrimido[6′,1′:2,3]imidazo[5,1-c] [1,4]oxazin-9(1H)-one] | ≤ 10 µM
O=c1nc(OCc2cccc(F)c2F)cc2n1C[C@@H]1COCCN21 [Example E221, (R)-7-((2,3-difluorobenzyl)oxy)-3,4,11,11a-tetrahydropyrimido[6′,1′:2,3]imidazo[5,1-c][1,4]oxazin-9(1H)-one] | ≤ 0.1 µM
O=c1nc(OCc2cc(F)c(F)cc2F)cc2n1C[C@H]1CCCCN21 [Example E225, (R)-3-((2,4,5-trifluorobenzyl)oxy)-6,7,8,9,9a,10-hexahydro-1H-pyrido[1′,2′:3,4]imidazo[1,2-c]pyrimidin-1-one] | ≤ 10 µM
O=c1nc(OCCc2cccc(F)c2)cc2n1C[C@@H]1COCCN21 [Example E246, (R)-7-(3-fluorophenethoxy)-3,4,11,11a-tetrahydropyrimido[6′,1′:2,3]imidazo[5,1-c][1,4] oxazin-9(1H)-one] | ≤ 10 µM
O=c1nc(OCCc2cccc(F)c2)cc2n1C[C@H]1COCCN21 [Example E248, (S)-7-(3-fluorophenethoxy)-3,4,11,11a-tetrahydropyrimido[6′,1′:2,3]imidazo[5,1-c][1,4] oxazin-9(1H)-one] | ≤ 10 µM
O=c1nc(OCCc2cccc(F)c2)cc2n1C[C@H]1CCCN21 [Example E249, (R)-3-(3-fluorophenethoxy)-7,8,8a,9-tetrahydropyrrolo[1′,2′:3,4]imidazo[1,2-c]pyrimidin-1(6H)-one] | ≤ 10 µM
N#Cc1ccc(CCOc2cc3n(c(=O)n2)C[C@H]2CCCN32)cc1 [Example E254, (R)-4-(2-((1-oxo-1,6,7,8,8a,9-hexahydropyrrolo[1′,2′:3,4]imidazo[1,2-c]pyrimidin-3-yl)oxy)ethyl)benzonitrile] | ≤ 10 µM
N#Cc1ccc(CCOc2cc3n(c(=O)n2)C[C@H]2COCCN32)cc1 [Example E255, (S)-4-(2-((9-oxo-1,3,4,9,11,11a-hexahydropyrimido[6′,1′:2,3]imidazo[5,1-c][1,4]oxazin-7-yl)oxy)ethyl)benzonitrile] | ≤ 10 µM
O=c1nc(CCc2cccc(F)c2)cc2n1C[C@@H]1COCCN21 [Example E256, (R)-7-(3-fluorophenethyl)-3,4,11,11a-tetrahydropyrimido[6′,1′:2,3]imidazo[5,1-c][1,4]oxazin-9(1H)-one] | ≤ 10 µM
O=c1nc(CCc2cccc(F)c2)cc2n1C[C@H]1COCCN21 [Example E257, (S)-7-(3-fluorophenethyl)-3,4,11,11a-tetrahydropyrimido[6′,1′:2,3]imidazo[5,1-c][1,4] oxazin-9(1H)-one] | ≤ 10 µM
O=c1nc(OCc2cc(F)c(OC3(CCF)CC3)c(F)c2)cc2n1C[C@@H]1COCCN21 [Example E258, (R)-7-((3,5-difluoro-4-(1-(2-fluoroethyl)cyclopropoxy)benzyl)oxy)-3,4,11,11a-tetrahydropyrimido[6′,1′:2,3]imidazo[5,1-c][1,4]oxazin-9(1H)-one] | ≤ 10 µM
O=c1nc(OCc2cc(F)c(OC3(CCF)CC3)c(F)c2)cc2n1C[C@H]1COCCN21 [Example E262, (S)-7-((3,5-difluoro-4-(1-(2-fluoroethyl)cyclopropoxy)benzyl)oxy)-3,4,11,11a-tetrahydropyrimido[6′,1′:2,3]imidazo[5,1-c][1,4]oxazin-9(1H)-one] | ≤ 10 µM

biological target: T2, recombinant human Lp-PLA2 (Homo sapiens, UniProt Q13093); test: (1a) PED6 assay, recombinant human Lp-PLA2 (rhLp-PLA2); format: biochemical; details: Examples 1-167 and 413-430 were tested here, one experiment or average of multiple experiments, read-out: rhLp-PLA2 (pIC50) (converted)
T2 sequence (Q13093 22-441): T1 sequence (Q13093 22-441)
Description: (1) Recombinant Human Lp-PLA2 Assays (rhLp-PLA2)
N-((6-(2,4-Dinitrophenyl)amino)-hexanoyl)-2-(4,4-difluoro-5,7-dimethyl-4-bora-3a,4a-diaza-s-indacene-3-pentanoyl)-1-hexadecanoyl-sn-glycero-3-phosphoethanolamine, triethylammonium salt (PED6) is a commercially available fluorescently-labeled phospholipid, which is commercially available from Invitrogene and Molecular Probes. There is a quenching […] and a Bodipy fluorescein (FL) group in the sn2 position. Upon cleavage with Lp-PLA2, the Bodipy FL group is liberated and then may result in an increase in fluorescence. Inhibitors of Lp-PLA2 therefore prevent this cleavage and no fluorescent increase is observed.
The PED6 assay was run as an unquenched 10 μL assay. The source plate containing the compounds to be tested was prepared by making 1:3 (by volume) serial dilution of the compounds within DMSO on 384-well microplate. Then, 0.01 μL of the compounds on compound source plate were transferred into 384 well Greiner 784076 (black) plates using ECHO liquid dispenser. 5 μL of recombinant human Lp-PLA2 enzyme (4 nM) rhLp-PLA2 in assay buffer of 50 mM HEPES, pH 7.4, 150 mM NaCl, 1 mM CHAPS) was added to each well of the plate. Plates were centrifuged for 10 sec at 500 rpm. After 30 minutes preincubation, 5 μL of substrate (4 μM PED6 [from 5 mM DMSO stock] in assay buffer of 50 mM HEPES, pH 7.4, 150 mM NaCl, 1 mM CHAPS) was added to 384 well Greiner 784076 (black) plates. Plates were centrifuged for 10 sec at 500 rpm. The plate was covered to protect it from light and incubated for 20 min at room temperature. The plates were read for fluorescence intensity at ex: 480/em: 540 using ViewLux microplate imager for Envision spectrofluroimeters. pIC50 data, curve and QC analysis was conducted by using XL fit module in Excel.

Compound | IC50
N#Cc1ccc(COc2cc3n(c(=O)n2)CC2CCCCN32)cc1 (centres unmarked) [Example E4, 4-(((1-Oxo-6,7,8,9,9a,10-Hexahydro-1H-pyrido[1′,2′:3,4]imidazo[1,2-c]pyrimidin-3-yl)oxy)methyl)benzonitrile] | ≤ 10 µM
O=c1nc(OCc2ccc(C(F)(F)F)c(Cl)c2)cc2n1CC1CCCCN21 (centres unmarked) [Example E7, 3-((3-Chloro-4-(trifluoromethyl)benzyl)oxy)-6,7,8,9,9a,10-hexahydro-1H-pyrido[1′,2′:3,4] imidazo[1,2-c]pyrimidin-1-one] | ≤ 10 µM
Cc1ccc(COc2cc3n(c(=O)n2)CC2CCCCN32)cc1 (centres unmarked) [Example E9, 3-((4-Methylbenzyl)oxy)-6,7,8,9,9a,10-hexahydro-1H-pyrido[1,2′:3,4]imidazo[1,2-c] pyrimidin-1-one] | ≤ 10 µM
O=c1nc(OCc2ccc(F)c(C(F)(F)F)c2)cc2n1CC1CCCCN21 (centres unmarked) [Example E13, 3-((4-Fluoro-3-(trifluoromethyl)benzyl)oxy)-6,7,8,9,9a,10-hexahydro-1H-pyrido-[1′,2′:3,4] imidazo[1,2-c]pyrimidin-1-one] | ≤ 10 µM
CN(Cc1ccc(F)cc1F)c1cc2n(c(=O)n1)C[C@@H]1CCCCN21 [Example E61, (S)-3-((2,4-Difluorobenzyl)(methyl)amino)-6,7,8,9,9a,10-hexahydro-1H-pyrido[1′,2′:3,4] imidazo[1,2-c]pyrimidin-1-one] | ≤ 0.1 µM
O=c1nc(OCc2cc(F)c(Oc3ccnc(C(F)(F)F)c3)c(F)c2)cc2n1C[C@H]1CCCN21 [Example E67, (R)-3-((3,5-difluoro-4-((2-(trifluoromethyl)pyridin-4-yl)oxy)benzyl)oxy)-7,8,8a, 9-tetra hydropyrrolo[1′,2′:3,4]imidazo[1,2-c]pyrimidin-1(6H)-one] | ≤ 0.001 µM
O=c1nc(OCc2cc(F)c(Oc3ccnc(C(F)(F)F)c3)c(F)c2)cc2n1C[C@@H]1CCCN21 [Example E71, (S)-3-((3,5-difluoro-4-((2-(trifluoromethyl)pyridin-4-yl)oxy)benzyl)oxy)-7,8,8a, 9-tetra hydropyrrolo[1′,2′:3,4]imidazo[1,2-c]pyrimidin-1(6H)-one] | ≤ 0.001 µM
